# “Also recorded” adds a separate entry of the source.
# What was measured:
# SALL4 = target: T1, SALL4 (Homo sapiens, UniProt Q96SW2+Q9UJQ4); test: SALL4 protein level in human iPS cells, immunoblot; type: cell-based; conditions: 16 hours
# T1 construct: host or cells: human iPS cells (CRBN wild-type and CRBN knock-out)
# Description: Immunoblot analysis of whole cell lysates of CRBN wild-type (WT) and CRBN knock-out (−/−) human iPS cells was performed. Cells were treated with DMSO vehicle control (−) or thalidomide (Thal) at indicated concentrations for 16 hours (n=4, biological replicates).
# Immunoblot analysis of whole cell lysates of human iPS cells treated with DMSO (−) or Thal (+) in the presence or absence of 1 μM MLN4924 or 10 μM MG132 for 6 hours were performed (n=2, biological replicates).
# Human iPS cell lines ACS-1019 and ACS-1011 (derived from healthy donors) were obtained from ATCC. The hiPSCs were maintained in mTESR-1 medium (Stem Cell Technologies) in cell culture plates coated with a thin layer of Matrigel (BD Biosciences) incubated at 37° C. in a humidified 5% CO2 incubator according to the manufacturer's instruction. Cells were split through mechanic passaging with a glass pipet and enzymatically digestion with Dispase or Accutase every 2 to 3 days.
# Human iPSCs, ACS-1019 was transduced with lentiviral vectors expressing CRISPR-Cas9 and small guide RNA targeting cereblon for 4 days. The resulting colonies were amplified and screened for cereblon knockout by immunoblot analysis with anti-CRBN65 antibody (Celgene).
# [1] = target: T2, SALL4 zinc finger domains / cereblon-CRL4 (Homo sapiens, UniProt Q96SW2+Q9UJQ4, G600A); test: In vitro ubiquitination of human SALL4 zinc fingers by human cereblon-CRL4; type: biochemical; conditions: compared with wild-type ZF4; with thalidomide
# T2 construct: Human cereblon-DDB1 (cereblon amino acids 40-442 and full length DDB1); The first zinc finger domain encompasses amino acid residues 405-432; ZZ-domain-6xHis-thrombin site (N, cleaved yes); made in house; host or cells: SF9 insect cells (cereblon-DDB1, Cul4A-Rbx1); E. coli BL21 (DE3) Star (MBP-zinc finger)
# Description: (§1) Purified E1, E2, ubiquitin, Cul4A-Rbx1, cereblon-DDB1, and GSPT1 proteins were used to reconstitute the ubiquitination of MBP-fused WT and mutant proteins in vitro. Substrate proteins purified by maltose affinity resin (NEB) were incubated at an approximate concentration of 30 uM. Ubiquitination components described briefly: Human cereblon-DDB1 (cereblon amino acids 40-442 and full length DDB1) and 6×his-DDB1 alone were co-expressed in SF9 insect cells in the presence of 50 μM zinc acetate, and purified by nickel affinity resin (Qiagen), HiTrap ANX column ion exchange (GE Healthcare), and Sephacryl 400 16/60 size exclusion chromatography (GE healthcare). Human full length Cul4A and Rbx1 were co-expressed in SF9 insect cells and purified by nickel affinity resin and Superdex 200 16/60 size exclusion chromatography. Purified recombinant human Ube1 E1 (E-305), UbcH5a E2 (E2-616), and ubiquitin (U-100H) were purchased from R&D systems. Components were mixed to final concentrations of 10 mM ATP, 1 μM Ube1, 25 μM UbcH5a, 200 μM Ub, 1 μM Cul4-Rbx1, 25 μM GSPT1, and 1 μM cereblon-DDB1, with or without 100 μM compound as indicated in ubiquitination assay buffer (20 mM HEPES pH 7.5, 150 mM NaCl, 10 mM MgCl2). After preincubation of E1, E2, ATP and ubiquitin for 30 minutes, and separate pre-incubation of MBP-substrate, CRBN-DDB1, Cul4-Rbx1, and compound for 5 minutes at room temperature, ubiquitination reactions were started by mixing the two pre-incubations. Reactions were incubated at 30 C for 2 hours before separation by SDS-PAGE followed by coomassie staining or immunoblot analysis.
# (§2) SALL4 contains 7 zinc finger domains, 4 of which have a glycine at the same position as cereblon substrates Ikaros and Aiolos. In this example, four domains containing these 4 glycine-containing zinc fingers were tested for compound-dependent ubiquitination by cereblon-CRL4 in a fully purified, in vitro ubiquitination system (see FIG. 1). The first zinc finger domain encompasses amino acid residues 405-432, which has a sequence of […] (SEQ ID NO: 3). The second zinc finger domain encompasses amino acid residues 589-616, which has a sequence of […] (SEQ ID NO: 4). The third zinc finger domain encompasses amino acid residues 865-892, which has a sequence of […] (SEQ ID NO: 5). The fourth zinc finger domain encompasses amino acid residues 893-920, which has a sequence of […] (SEQ ID NO: 6). Ikaros zinc finger domain (amino acid residues 140-168) was used as a control, which has a sequence of […] (SEQ ID NO: 7).
# (§3) More specifically, individual zinc finger domains of SALL4 were expressed in E. coli and purified via an MBP tag. Purified zinc fingers were then tested in an in vitro ubiquitination assay for cereblon binding and ubiquitination. Purified zinc fingers were incubated with purified cereblon-CRL4 ubiquitin ligase complex and purified ubiquitination cascade components Uba1, UbcH5a, UbcH5b, ATP, and ubiquitin.
# (§4) Ikaros and Aiolos harbor this motif within a zinc finger domain. 4 of them contain a glycine at the position necessary to mediate cereblon binding (see FIG. 1B). The human version of these four individual zinc fingers were expressed and purified for testing in our in vitro cereblon-CRL4 ubiquitination assay (see FIG. 1C). […] The existence of preferred zinc finger domains is highly reminiscent of the cereblon substrates Ikaros and Aiolos, where a single zinc finger motif mediates cereblon recruitment and degradation.
# [2] = target: T3, SALL4 zinc finger domains / cereblon-CRL4 (Homo sapiens, UniProt Q96SW2+Q9UJQ4); test: as above; type: biochemical; conditions: MBP-tagged zinc finger, thalidomide vs DMSO
# T3 construct: Human cereblon-DDB1 (cereblon amino acids 40-442 and full length DDB1); The first zinc finger domain encompasses amino acid residues 405-432; ZZ-domain-6xHis-thrombin site (N, cleaved yes); made in house; host or cells: SF9 insect cells (cereblon-DDB1, Cul4A-Rbx1); E. coli BL21 (DE3) Star (MBP-zinc finger)
# Description: as §1, §2, §3, §4
# [3] = tested on: SALL4 binding to cereblon; test: Co-immunoprecipitation of CRBN and SALL4 variants in lenti-X-293 cells expressing GST-CRBN; type: cell-based, human; conditions: 40 μM thalidomide, 8 hours, 1 μM MLN4924
# Description: All cells were treated with 1 μM MLN4924, and either 40 μM thalidomide (+) or DMSO vehicle control (−) as indicated for 8 hours (n=2 biological replicates).
# Lenti-X-293 cells were cotransfected with pDEST27-CRBN, which encodes GST-CRBN, and pLOC empty vector (Thermo Fisher), which contains a blasticidin resistant gene. Two days after transfection, cells were trypsinized and seeded into 96-well plates through limiting dilution. After selectin with blasticidin (20 μg/mL) for 2 weeks, single clones were picked, expanded and screened for overexpression of GST-CRBN via immunoblot analysis with anti-CRBN65 antibody. Next, lenti-X-293 cells stably expressing GST-CRBN Human were infected with lentiviruses expressing SALL4 wild-type and variants to generate lenti-x-293 cells stably expressing GST-CRBN and SALL4. Then, cells were treated with DMSO or 40 μM thalidomide for 8 hours in the presence of 1 μM MLN4924, and lysed in Buffer B [50 mM Tris (pH 7.4), 150 mM NaCl, 0.5% NP-40, 10% glycerol, 1× Complete Ultra protease inhibitor (Roche), and 1× PhosphoSTOP (Roche)]. […] After washing the anti-HA resin with Buffer B for 6 times, anti-HA immunoprecipitates were eluted by boiling in 2×LDS loading buffer at 90° C. for 5 minutes, and then subjected to immunoblot analysis.
# T1 sequence (Q9UJQ4 whole entry): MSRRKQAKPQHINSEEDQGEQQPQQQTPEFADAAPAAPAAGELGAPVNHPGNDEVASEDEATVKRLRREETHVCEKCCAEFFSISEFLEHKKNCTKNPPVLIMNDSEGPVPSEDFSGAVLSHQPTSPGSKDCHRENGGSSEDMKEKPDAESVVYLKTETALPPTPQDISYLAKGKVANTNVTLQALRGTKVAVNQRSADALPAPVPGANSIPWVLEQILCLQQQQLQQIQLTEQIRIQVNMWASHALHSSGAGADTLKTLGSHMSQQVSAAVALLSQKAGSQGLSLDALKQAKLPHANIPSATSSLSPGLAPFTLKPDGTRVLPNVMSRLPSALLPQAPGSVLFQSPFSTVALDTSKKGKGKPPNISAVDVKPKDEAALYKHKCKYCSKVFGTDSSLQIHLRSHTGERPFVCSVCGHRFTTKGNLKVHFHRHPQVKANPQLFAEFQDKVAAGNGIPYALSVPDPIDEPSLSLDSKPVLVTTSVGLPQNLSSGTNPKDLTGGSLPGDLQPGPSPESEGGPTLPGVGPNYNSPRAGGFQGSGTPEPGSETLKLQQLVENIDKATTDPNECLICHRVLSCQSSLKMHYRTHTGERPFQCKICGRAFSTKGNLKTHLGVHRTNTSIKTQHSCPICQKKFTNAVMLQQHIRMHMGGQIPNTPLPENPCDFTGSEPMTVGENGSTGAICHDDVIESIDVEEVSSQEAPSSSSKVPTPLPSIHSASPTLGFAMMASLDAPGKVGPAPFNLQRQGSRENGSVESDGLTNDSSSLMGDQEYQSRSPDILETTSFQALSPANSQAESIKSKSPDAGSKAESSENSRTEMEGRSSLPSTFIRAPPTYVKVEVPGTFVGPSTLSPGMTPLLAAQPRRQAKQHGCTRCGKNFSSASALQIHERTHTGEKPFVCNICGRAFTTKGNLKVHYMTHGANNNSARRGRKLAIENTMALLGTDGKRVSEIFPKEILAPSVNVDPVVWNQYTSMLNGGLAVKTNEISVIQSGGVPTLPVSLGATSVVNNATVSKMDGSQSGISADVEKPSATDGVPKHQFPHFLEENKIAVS
# T1 sequence (Q96SW2 whole entry): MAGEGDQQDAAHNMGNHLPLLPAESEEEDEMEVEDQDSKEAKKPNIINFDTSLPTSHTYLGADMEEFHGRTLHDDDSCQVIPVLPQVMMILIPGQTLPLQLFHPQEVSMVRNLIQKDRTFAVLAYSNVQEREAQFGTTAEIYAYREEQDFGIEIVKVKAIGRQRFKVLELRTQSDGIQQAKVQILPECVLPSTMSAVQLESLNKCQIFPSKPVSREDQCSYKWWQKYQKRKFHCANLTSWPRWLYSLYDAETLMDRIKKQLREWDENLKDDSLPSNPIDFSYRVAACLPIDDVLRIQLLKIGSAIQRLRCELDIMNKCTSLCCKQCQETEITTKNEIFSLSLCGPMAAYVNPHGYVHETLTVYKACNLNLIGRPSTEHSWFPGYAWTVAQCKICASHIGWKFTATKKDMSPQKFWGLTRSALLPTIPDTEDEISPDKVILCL
# T1 sequence (Q16531 whole entry partner): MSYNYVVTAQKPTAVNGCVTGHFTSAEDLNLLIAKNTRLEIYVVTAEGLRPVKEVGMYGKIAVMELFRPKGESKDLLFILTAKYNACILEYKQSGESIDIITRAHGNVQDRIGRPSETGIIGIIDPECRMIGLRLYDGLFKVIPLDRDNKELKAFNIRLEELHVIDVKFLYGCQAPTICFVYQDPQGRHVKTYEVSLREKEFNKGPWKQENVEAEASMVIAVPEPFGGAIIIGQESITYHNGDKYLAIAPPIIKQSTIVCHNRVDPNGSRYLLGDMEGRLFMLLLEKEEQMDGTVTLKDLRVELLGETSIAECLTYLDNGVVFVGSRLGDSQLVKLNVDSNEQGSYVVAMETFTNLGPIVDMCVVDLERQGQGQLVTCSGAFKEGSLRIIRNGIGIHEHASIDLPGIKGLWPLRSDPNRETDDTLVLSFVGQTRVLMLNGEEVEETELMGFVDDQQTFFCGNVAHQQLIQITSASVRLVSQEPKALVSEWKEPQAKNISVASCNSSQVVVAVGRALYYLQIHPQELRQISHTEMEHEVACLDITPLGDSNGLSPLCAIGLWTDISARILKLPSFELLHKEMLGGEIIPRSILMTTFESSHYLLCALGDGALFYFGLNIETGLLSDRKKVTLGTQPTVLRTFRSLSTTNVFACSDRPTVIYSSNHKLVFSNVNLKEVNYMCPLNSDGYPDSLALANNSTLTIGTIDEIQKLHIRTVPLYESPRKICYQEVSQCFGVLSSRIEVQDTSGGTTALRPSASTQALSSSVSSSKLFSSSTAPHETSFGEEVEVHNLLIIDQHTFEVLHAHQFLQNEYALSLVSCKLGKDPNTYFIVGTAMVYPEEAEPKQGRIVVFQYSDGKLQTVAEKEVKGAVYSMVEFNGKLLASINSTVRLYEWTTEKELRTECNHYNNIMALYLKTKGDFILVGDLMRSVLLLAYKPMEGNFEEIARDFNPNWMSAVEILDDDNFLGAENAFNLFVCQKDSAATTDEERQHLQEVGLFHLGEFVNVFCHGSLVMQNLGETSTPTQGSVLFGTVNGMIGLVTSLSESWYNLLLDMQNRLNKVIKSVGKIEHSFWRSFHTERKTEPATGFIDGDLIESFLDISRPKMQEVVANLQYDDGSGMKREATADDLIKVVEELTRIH
# T2 sequence (Q96SW2 40-442): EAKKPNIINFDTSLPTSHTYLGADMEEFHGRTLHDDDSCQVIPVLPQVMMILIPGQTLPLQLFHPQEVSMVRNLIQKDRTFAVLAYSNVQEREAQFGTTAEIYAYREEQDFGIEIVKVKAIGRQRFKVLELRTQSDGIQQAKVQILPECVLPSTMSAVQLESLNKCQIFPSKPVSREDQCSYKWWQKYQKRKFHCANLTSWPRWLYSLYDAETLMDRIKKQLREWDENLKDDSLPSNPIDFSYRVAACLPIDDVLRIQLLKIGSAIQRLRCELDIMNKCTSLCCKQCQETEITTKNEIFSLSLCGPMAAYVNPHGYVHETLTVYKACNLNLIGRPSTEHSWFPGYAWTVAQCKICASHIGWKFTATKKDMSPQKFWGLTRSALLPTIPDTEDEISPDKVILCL
# T2 sequence (Q9UJQ4 589-616 G600A): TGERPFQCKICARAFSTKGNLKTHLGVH
# T2 sequence (Q16531 whole entry partner, the tested form may be a part): as the sequence (Q16531 whole entry partner) above
# T2 sequence (Q13619 whole entry partner, the tested form may be a part): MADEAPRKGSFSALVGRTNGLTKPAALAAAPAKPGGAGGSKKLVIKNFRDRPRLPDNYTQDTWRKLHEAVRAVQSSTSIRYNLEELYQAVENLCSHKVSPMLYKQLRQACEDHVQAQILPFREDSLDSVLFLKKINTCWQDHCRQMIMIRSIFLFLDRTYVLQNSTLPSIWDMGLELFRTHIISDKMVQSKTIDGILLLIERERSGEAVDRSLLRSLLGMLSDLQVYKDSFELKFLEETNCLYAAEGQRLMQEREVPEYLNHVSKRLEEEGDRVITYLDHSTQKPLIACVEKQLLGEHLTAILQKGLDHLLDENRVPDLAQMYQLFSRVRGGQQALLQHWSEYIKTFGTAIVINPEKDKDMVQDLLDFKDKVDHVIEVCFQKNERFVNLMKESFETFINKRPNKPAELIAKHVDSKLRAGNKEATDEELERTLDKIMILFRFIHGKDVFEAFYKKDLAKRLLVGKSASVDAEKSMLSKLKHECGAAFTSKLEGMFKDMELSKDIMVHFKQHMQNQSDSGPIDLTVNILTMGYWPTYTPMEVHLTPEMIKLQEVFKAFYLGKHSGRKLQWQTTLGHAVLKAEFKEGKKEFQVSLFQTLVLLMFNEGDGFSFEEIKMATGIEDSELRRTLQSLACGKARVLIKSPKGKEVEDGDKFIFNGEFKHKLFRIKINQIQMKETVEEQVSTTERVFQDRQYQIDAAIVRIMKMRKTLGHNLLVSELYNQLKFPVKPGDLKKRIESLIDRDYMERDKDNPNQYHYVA
# T2 sequence (P62877 whole entry partner, the tested form may be a part): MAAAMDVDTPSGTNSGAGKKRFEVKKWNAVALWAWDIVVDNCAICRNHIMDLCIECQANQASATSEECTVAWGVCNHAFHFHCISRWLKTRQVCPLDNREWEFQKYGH
structure (smiles),measurement,setting,value
O=C1CCC(N2C(=O)c3ccccc3C2=O)C(=O)N1 (stereo not drawn) [thalidomide],SALL4 protein levels in CRBN wild-type human iPS cells,SALL4; indicated concentrations,reduced upon exposure to thalidomide in a dose dependent fashion; also recorded: dependent on thalidomide and cerelon
same,SALL4 downregulation in CRBN knock-out human iPS cells,SALL4; CRISPR-mediated cereblon knockout,completely blocked the downregulation of SALL4 induced by thalidomide
same,Ubiquitination of G600A mutant SALL4 zinc finger 4,[1],significantly reduced upon mutation of the glycine to alanine
same,"Ubiquitination of SALL4 zinc finger 2 (ZF2, a.a. 410-432) by cereblon-CRL4",[2],robustly ubiquitinated in a thalidomide-dependent manner; also recorded: efficiently ubiquitinated by cereblon-CRL4 in a thalidomide-dependent manner; also recorded: efficiently ubiquitinated by human cereblon in a thalidomide-dependent manner
same,"Ubiquitination of SALL4 zinc finger 4 (ZF4, a.a. 594-616) by cereblon-CRL4",[2],"also ubiquitinated in the presence of thalidomide, but more weakly; also recorded: weak ubiquitination"
same,Ubiquitination of SALL4 zinc finger domain a.a. 405-432 by cereblon-CRL4,[2]; 100 μM compound,observed only in the presence of cereblon modifying compound; also recorded: ubiquitinated in a thalidomide-dependent manner quite strongly; also recorded: predominantly ubiquitinated by cereblon-CRL4 in a thalidomide-dependent manner
same,Binding of G416A SALL4 to cereblon (co-IP),[3],disrupted cereblon binding in cells
same,Binding of G600A SALL4 to cereblon (co-IP),[3],able to bind cereblon
same,Binding of wild-type SALL4 to cereblon (co-IP),[3],able to bind cereblon
